Test results as given in article PMC10709440, “High-throughput ligand profile characterization in novel cell lines expressing seven heterologous insect olfactory receptors for the detection of volatile plant biomarkers” (Scientific Reports, 2023).
Where two headings read alike, the source gives them in different places.

Assays:
[1] = target: T1, Drosophila OR49b (Drosophila melanogaster, UniProt Q9V6H2); assay: cell-based; conditions: for Average response: mean of biological replicates; for activation at 1 µM / activation at 10 µM / activation at 100 µM: HEK293
T1 construct: expressed in transfected cells
T1 sequence (Q9V6H2 1-375): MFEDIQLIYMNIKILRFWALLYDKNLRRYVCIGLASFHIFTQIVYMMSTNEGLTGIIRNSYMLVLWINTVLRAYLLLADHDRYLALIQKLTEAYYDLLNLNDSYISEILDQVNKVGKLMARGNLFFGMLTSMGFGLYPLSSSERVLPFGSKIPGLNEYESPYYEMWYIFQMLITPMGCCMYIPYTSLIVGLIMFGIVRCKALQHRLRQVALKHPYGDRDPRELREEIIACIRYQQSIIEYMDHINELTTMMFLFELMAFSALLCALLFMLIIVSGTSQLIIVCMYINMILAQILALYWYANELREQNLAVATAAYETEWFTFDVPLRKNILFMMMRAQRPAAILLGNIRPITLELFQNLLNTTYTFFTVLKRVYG
T1 sequence (Q9VNB5 1-486 partner): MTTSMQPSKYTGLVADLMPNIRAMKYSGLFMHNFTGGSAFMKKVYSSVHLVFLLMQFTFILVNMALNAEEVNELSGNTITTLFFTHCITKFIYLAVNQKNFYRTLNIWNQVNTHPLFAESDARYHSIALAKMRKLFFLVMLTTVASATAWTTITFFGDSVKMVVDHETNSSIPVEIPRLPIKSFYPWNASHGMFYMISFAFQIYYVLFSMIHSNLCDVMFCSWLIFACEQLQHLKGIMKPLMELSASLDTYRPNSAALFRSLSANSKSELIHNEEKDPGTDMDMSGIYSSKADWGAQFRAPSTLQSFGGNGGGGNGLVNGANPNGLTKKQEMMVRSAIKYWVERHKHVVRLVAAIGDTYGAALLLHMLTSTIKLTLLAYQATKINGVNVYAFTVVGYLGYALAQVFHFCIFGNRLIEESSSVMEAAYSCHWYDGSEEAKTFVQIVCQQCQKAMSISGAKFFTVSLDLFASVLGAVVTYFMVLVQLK
Outline: (§1)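 HEK293 lines stably expressing each Drosophila OR with GCaMP6, doxycycline-induced (1 μg/mL) 48 or 72 h. Fluorescence recorded 5 s baseline then 30 s after VOC injection at pH 7.3; ΔF=(FMAX−F0)/F0, normalized to 50 µM VUAA1 response per line, triplicate wells averaged; concentration series 0.01–100 μM.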

[2] = target: T2, Drosophila OR71a (Drosophila melanogaster, UniProt Q9VUK5); assay: Calcium ion fluorescence (GCaMP6) assay, OR71a stable HEK293 cell line; format: cell-based; conditions: for Average response: VUAA1-normalized response, mean of biological replicates; for activation at 1 µM / activation at 10 µM / activation at 100 µM: HEK293, read-out: OR71a response (VUAA1-normalized response)
T2 construct: expressed in transfected cells
T2 sequence (Q9VUK5 1-378): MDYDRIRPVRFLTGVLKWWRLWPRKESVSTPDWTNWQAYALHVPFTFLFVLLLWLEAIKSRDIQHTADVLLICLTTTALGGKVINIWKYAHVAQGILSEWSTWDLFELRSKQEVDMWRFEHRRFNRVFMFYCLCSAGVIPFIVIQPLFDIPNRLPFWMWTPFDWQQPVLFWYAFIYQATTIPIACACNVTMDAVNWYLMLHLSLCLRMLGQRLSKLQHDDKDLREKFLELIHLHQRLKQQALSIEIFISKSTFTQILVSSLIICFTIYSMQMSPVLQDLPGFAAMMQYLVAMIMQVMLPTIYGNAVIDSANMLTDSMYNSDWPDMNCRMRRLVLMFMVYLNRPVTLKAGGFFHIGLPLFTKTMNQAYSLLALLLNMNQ
T2 sequence (Q9VNB5 1-486 partner): T1 sequence (Q9VNB5 1-486 partner)
Outline: as §1

[3] = OR49b cell line, odorant cc. 1 µM
[4] = OR49b cell line, odorant cc. 10 µM
[5] = OR49b cell line, odorant cc. 100 µM
[6] = concentration 1, normalized fluorescence change, values below 0.05 threshold given as 0
[7] = concentration 10, normalized fluorescence change, values below 0.05 threshold given as 0
[8] = concentration 100, normalized fluorescence change, values below 0.05 threshold given as 0
[9] = VOC concentration 1 μM, read-out: OR49b response (VUAA1-normalized response)
[10] = VOC concentration 10 μM, read-out: OR49b response (VUAA1-normalized response)
[11] = VOC concentration 100 μM, read-out: OR49b response (VUAA1-normalized response)
[12] = 1 μM VOC, 50 μM VUAA1 = 1, read-out: OR49b Average response (VUAA1-normalized)
[13] = 10 μM VOC, 50 μM VUAA1 = 1, read-out: OR49b Average response (VUAA1-normalized)
[14] = 100 μM VOC, 50 μM VUAA1 = 1, read-out: OR49b Average response (VUAA1-normalized)
[15] = ligand concentration 1 (unit not given), threshold 0.05, below shown as 0
[16] = ligand concentration 10 (unit not given), threshold 0.05, below shown as 0
[17] = ligand concentration 100 (unit not given), threshold 0.05, below shown as 0

SMILES: C=C(C)[C@H]1CC=C(C)CC1 [(R)-(+)-limonene]
- DF norm AVERAGE OR49b [1]: 0
- Average response [1, 3]: 0.00
- Average response [1, 4]: 0.00
- Average response [1, 5]: 0.0168
- OR49b response (VUAA1-normalized response) ([1]; VOC concentration 1 μM): 0.00
- OR49b response (VUAA1-normalized response) ([1]; VOC concentration 10 μM): 0.00
- OR49b response (VUAA1-normalized response) ([1]; VOC concentration 100 μM): 0.00
- Average response ([2]; OR71a cell line, cc. 1 µM): 0.0368
- Average response ([2]; OR71a cell line, cc. 10 µM): 0.00
- Average response ([2]; OR71a cell line, cc. 100 µM): 0.00
- OR71a response (VUAA1-normalized response) ([2]; VOC concentration 1 μM): 0.00
- OR71a response (VUAA1-normalized response) ([2]; VOC concentration 10 μM): 0.00
- OR71a response (VUAA1-normalized response) ([2]; VOC concentration 100 μM): 0.00
- DF norm AVERAGE OR71a [2, 6]: 0
- DF norm AVERAGE OR71a [2, 7]: 0
- DF norm AVERAGE OR71a [2, 8]: 0

SMILES: CCCCCC(=O)CC [3-octanone]
- activation at 1 µM [1, 9]: 0%
- activation at 10 µM [1, 10]: 17%
- activation at 100 µM [1, 11]: 0%
- Average response [1, 3]: 0.0421
- Average response [1, 4]: 0.17
- Average response [1, 5]: 0.0439
- activation at 1 µM [2]: 0%
- activation at 10 µM [2]: 0%
- activation at 100 µM [2]: 0%
- Average response ([2]; OR71a cell line, cc. 1 µM): 0.00
- Average response ([2]; OR71a cell line, cc. 10 µM): 0.00
- Average response ([2]; OR71a cell line, cc. 100 µM): 0.00
- DF norm AVERAGE OR71a [2, 6]: 0
- DF norm AVERAGE OR71a [2, 7]: 0
- DF norm AVERAGE OR71a [2, 8]: 0

SMILES: Cc1ccc(C)cc1 [p-xylene]
- activation at 1 µM [1, 12]: 0%
- activation at 10 µM [1, 13]: 3%
- activation at 100 µM [1, 14]: 38%
- OR49b response (VUAA1-normalized) at 1 μM ([1]; OR49b cell line, VOC concentration 1 μM): 0.00
- OR49b response (VUAA1-normalized) at 10 μM ([1]; OR49b cell line, VOC concentration 10 μM): 0.00
- OR49b response (VUAA1-normalized) at 100 μM ([1]; OR49b cell line, VOC concentration 100 μM): 0.38
- Average response [1, 3]: 0.00
- Average response [1, 4]: 0.033
- Average response [1, 5]: 0.38
- DF norm AVERAGE OR49b [1, 15]: 0
- DF norm AVERAGE OR49b [1, 16]: 0
- DF norm AVERAGE OR49b [1, 17]: 0.379
- OR71a response (VUAA1-normalized) at 1 μM ([2]; OR71a cell line, VOC concentration 1 μM): 0.00
- OR71a response (VUAA1-normalized) at 10 μM ([2]; OR71a cell line, VOC concentration 10 μM): 0.06
- OR71a response (VUAA1-normalized) at 100 μM ([2]; OR71a cell line, VOC concentration 100 μM): 0.00
- Average response ([2]; OR71a cell line, cc. 1 µM): 0.00
- Average response ([2]; OR71a cell line, cc. 10 µM): 0.06
- Average response ([2]; OR71a cell line, cc. 100 µM): 0.00
- DF norm AVERAGE OR71a [2, 15]: 0
- DF norm AVERAGE OR71a [2, 16]: 0.0615
- DF norm AVERAGE OR71a [2, 17]: 0

SMILES: C=CC(O)C/C=C\CC (centres unmarked) [(5Z)-octa-1,5-dien-3-ol]
- DF norm AVERAGE OR49b [1]: 0
- activation at 1 µM [1, 9]: 0%
- activation at 10 µM [1, 10]: 0%
- activation at 100 µM [1, 11]: 0%
- Average response [1, 3]: 0.00
- Average response [1, 4]: 0.04
- Average response [1, 5]: 0.00
- activation at 1 µM [2]: 0%
- activation at 10 µM [2]: 0%
- activation at 100 µM [2]: 0%
- Average response ([2]; OR71a cell line, cc. 1 µM): 0.00
- Average response ([2]; OR71a cell line, cc. 10 µM): 0.0228
- Average response ([2]; OR71a cell line, cc. 100 µM): 0.00
- DF norm AVERAGE OR71a [2, 6]: 0
- DF norm AVERAGE OR71a [2, 7]: 0
- DF norm AVERAGE OR71a [2, 8]: 0

SMILES: Cc1cccc(O)c1 [3-methylphenol]
- activation at 1 µM [1, 12]: 0%
- activation at 10 µM [1, 13]: 13%
- activation at 100 µM [1, 14]: 43%
- activation at 1 µM [1, 9]: 0%
- activation at 10 µM [1, 10]: 13%
- activation at 100 µM [1, 11]: 43%
- Average response [1, 3]: 0.00
- Average response [1, 4]: 0.13
- Average response [1, 5]: 0.43
- activation at 1 µM [2]: 0%
- activation at 10 µM [2]: 0%
- activation at 100 µM [2]: 0%
- Average response ([2]; OR71a cell line, cc. 1 µM): 0.03
- Average response ([2]; OR71a cell line, cc. 10 µM): 0.0152
- Average response ([2]; OR71a cell line, cc. 100 µM): 0.0133
- DF norm AVERAGE OR71a [2, 6]: 0
- DF norm AVERAGE OR71a [2, 7]: 0
- DF norm AVERAGE OR71a [2, 8]: 0

SMILES: CCCCCC(=O)OCC [ethyl hexanoate]
- activation at 1 µM [1, 9]: 0%
- activation at 10 µM [1, 10]: 0%
- activation at 100 µM [1, 11]: 0%
- Average response [1, 3]: 0.00
- Average response [1, 4]: 0.00
- Average response [1, 5]: 0.00
- DF norm AVERAGE OR49b [1, 15]: 0
- DF norm AVERAGE OR49b [1, 16]: 0
- DF norm AVERAGE OR49b [1, 17]: 0
- activation at 1 µM [2]: 0%
- activation at 10 µM [2]: 0%
- activation at 100 µM [2]: 0%
- Average response ([2]; OR71a cell line, cc. 1 µM): 0.0156
- Average response ([2]; OR71a cell line, cc. 10 µM): 0.0153
- Average response ([2]; OR71a cell line, cc. 100 µM): 0.00
- DF norm AVERAGE OR71a [2, 15]: 0
- DF norm AVERAGE OR71a [2, 16]: 0
- DF norm AVERAGE OR71a [2, 17]: 0

SMILES: CC(C)=CCC/C(C)=C/CC/C(C)=C/CO [e,e-farnesol]
- Average response [1, 3]: 0.00
- Average response [1, 4]: 0.06
- Average response [1, 5]: 0.00
- OR49b response (VUAA1-normalized response) ([1]; VOC concentration 1 μM): 0.00
- OR49b response (VUAA1-normalized response) ([1]; VOC concentration 10 μM): 0.06
- OR49b response (VUAA1-normalized response) ([1]; VOC concentration 100 μM): 0.00
- DF norm AVERAGE OR49b [1, 15]: 0
- DF norm AVERAGE OR49b [1, 16]: 0.06141
- DF norm AVERAGE OR49b [1, 17]: 0
- Average response ([2]; OR71a cell line, cc. 1 µM): 0.00
- Average response ([2]; OR71a cell line, cc. 10 µM): 0.0452
- Average response ([2]; OR71a cell line, cc. 100 µM): 0.00
- OR71a response (VUAA1-normalized response) ([2]; VOC concentration 1 μM): 0.00
- OR71a response (VUAA1-normalized response) ([2]; VOC concentration 10 μM): 0.00
- OR71a response (VUAA1-normalized response) ([2]; VOC concentration 100 μM): 0.00
- DF norm AVERAGE OR71a [2, 15]: 0
- DF norm AVERAGE OR71a [2, 16]: 0
- DF norm AVERAGE OR71a [2, 17]: 0
